Laboratory results published in US4767778A (Institut National de la Sante et de la Recherche Medicale …, priority 1985, dated 1988).
Where two headings read alike, the source gives them in different places.

Columns and labels:
[1] = tested on: H1 /H2 receptors; conditions: histamine = 100%; cited from earlier work
[2] = molecular target: T1, H3 autoreceptors (Rattus norvegicus, UniProt Q9QYN8)
[3] = tested on: H3 receptors; experiment: Inhibition of the synthesis of (3H) histamine in rats in vivo; parameters: species or system rat; conditions: for (3) histamine (% of the total radioactivity × 10^-3), Treated: 10 minutes
[4] = molecular target: T1, H3 autoreceptors; conditions: slices of rat brain
[5] = tested on: H3 receptors; experiment: Inhibition of synthesis of histamine in slices of human cerebral cortex and posterior hypothalamus; format: cell-based; conditions: slices of human cerebral cortex and posterior hypothalamus (mamillary)

T1 sequence (Q9QYN8 whole entry): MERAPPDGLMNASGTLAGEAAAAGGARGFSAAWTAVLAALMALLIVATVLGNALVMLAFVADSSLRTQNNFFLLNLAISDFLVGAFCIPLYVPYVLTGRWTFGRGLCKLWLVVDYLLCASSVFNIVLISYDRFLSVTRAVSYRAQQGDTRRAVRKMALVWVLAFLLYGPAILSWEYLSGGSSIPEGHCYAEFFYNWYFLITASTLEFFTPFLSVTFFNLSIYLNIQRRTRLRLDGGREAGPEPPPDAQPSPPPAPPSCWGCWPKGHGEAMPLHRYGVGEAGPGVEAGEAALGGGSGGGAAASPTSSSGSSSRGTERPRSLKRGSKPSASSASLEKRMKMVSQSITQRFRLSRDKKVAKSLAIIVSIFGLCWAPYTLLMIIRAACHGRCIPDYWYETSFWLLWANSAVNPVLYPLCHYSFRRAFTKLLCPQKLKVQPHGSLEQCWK

## C[C@](N)(Cc1c[nH]cn1)C(=O)O (racemic) [6 (R, S), α-methylhistidine]
[1]
  Activity relative to histamine (%) H1 /H2 receptors: inactive
[2]
  EC50: 1000 ± 500 nM
[2]; histamine = 100% (EC50 […] nM)
  Activity relative to histamine (%) H3 receptors: 6%

## NC1CC1c1c[nH]cn1 (stereo not shown) [compound 5, 2-(4-imidazolyl)-cyclopropylamine]
[1]
  Activity relative to histamine (%) H1 /H2 receptors: < 1%
[2]
  EC50: < 100 nM
[2]; histamine = 100% (EC50 […] nM)
  Activity relative to histamine (%) H3 receptors: > 60%

## CC(C)(CN)c1c[nH]cn1 [compound 4, 4-(1,1-dimethyl 2-aminoethyl)-imidazole]
[1]
  Activity relative to histamine (%) H1 /H2 receptors: < 0.1%
[2]
  EC50: 50 ± 20 nM
[2]; histamine = 100% (EC50 […] nM)
  Activity relative to histamine (%) H3 receptors: 120%

## C[C@@H](N)Cc1c[nH]cn1 [1 (R), 4-(2-aminopropyl)-imidazole]
[3]; 10 mg/kg, simultaneous with (3H)-L-histidine, completely reversed by an H3 antagonist
  effect on the synthesis of (3H) histamine in the brain and peripheral tissues: significantly reduces
[3]; Cerebral cortex, 10 mg/kg i.v. with (3H)-L-histidine, controls 95 ± 6
  (3) histamine (% of the total radioactivity × 10^-3), Treated: 53 ± 6 % of the total radioactivity ×
[3]; Cerebral cortex, 10 mg/kg i.v., p < 0.01
  Variation (%): -45%
[3]; Hypothalmus, 10 mg/kg i.v., controls 272 ± 11
  (3) histamine (% of the total radioactivity × 10^-3), Treated: 185 ± 32 % of the total radioactivity ×
[3]; Hypothalmus, 10 mg/kg i.v., p < 0.01
  Variation (%): -32%
[3]; Kidneys, 10 mg/kg i.v., p < 0.05
  Variation (%): -30%
[3]; Lungs, 10 mg/kg i.v., controls 138 ± 10
  (3) histamine (% of the total radioactivity × 10^-3), Treated: 94 ± 10 % of the total radioactivity ×
[3]; Lungs, 10 mg/kg i.v., p < 0.05
  Variation (%): -32%
[3]; Spleen, 10 mg/kg i.v., controls 60 ± 8
  (3) histamine (% of the total radioactivity × 10^-3), Treated: 42 ± 5 % of the total radioactivity ×
[3]; Spleen, 10 mg/kg i.v., p < 0.05
  Variation (%): -30%

## CC(C)(N)Cc1c[nH]cn1 [compound 2, 4-(2-methyl 2-aninopropyl)-imidazole]
[1]
  Activity relative to histamine (%) H1 /H2 receptors: < 1%
[2]
  Activity relative to histamine (%) H3 receptors: 300%
  EC50: 20 ± 10 nM

## CC(CN)c1c[nH]cn1 (racemic) [3 (R, S), 4-(1-methyl 2-aminoethyl)-imidazole]
[1]
  Activity relative to histamine (%) H1 /H2 receptors: 2-2%
[2]
  EC50: 20 ± 5 nM
[2]; histamine = 100% (EC50 […] nM)
  Activity relative to histamine (%) H3 receptors: 120%

## NCCc1c[nH]cn1 [histamine, reference compound]
[4]
  maximal inhibition of the stimulation by potassium of the synthesis of (3H) histamine: approximately 70%
[2]; slices of rat brain
  maximal inhibition of release of (3H) histamine: approximately 60%

## CC(N)Cc1c[nH]cn1 (racemic) [compound 1, 4-(2-aminopropyl)-imidazole]
[5]
  effect on synthesis of histamine: inhibits
